Our source for the EC50 values is patent US9504690B2, “Tetracyclic xanthene derivatives and methods of use thereof for the treatment of viral diseases” (Merck Sharp & Dohme Corp., priority 2011, dated 2016).

The EC50 is the concentration that produces a half-maximal response.

One assay relates to HCV replicon 1a WT. Put plainly: Cell-based HCV replicon assay, 1a WT. Conditions: Hepatitis C virus, 72 h; replicon cells, harvested day 3, replicon RNA by real time PCR (Taqman). On the procedure: (§1) To measure cell-based anti-HCV activity of selected compounds of the present invention, replicon cells were seeded at 5000 cells/well in 96-well collagen I-coated Nunc plates in the presence of the test compound. Various concentrations of test compound, typically in 10 serial 2-fold dilutions, were added to the assay mixture, with the starting concentration ranging from 250 μM to 1 μM. The final concentration of DMSO was 0.5%, fetal bovine serum was 5%, in the assay media. Cells were harvested on day 3 by the addition of 1× cell lysis buffer (Ambion cat #8721). The replicon RNA level was measured using real time PCR (Taqman assay). The amplicon was located in 5B. The PCR primers were: 5B.2F, ATGGACAGGCGCCCTGA (SEQ. ID. NO. 1); 5B.2R, […] (SEQ. ID. NO. 2); the probe sequence was FAM-labeled CACGCCATGCGCTGCGG (SEQ. ID. NO. 3). GAPDH RNA was used as endogenous control and was amplified in the same reaction as NS5B (multiplex PCR) using primers and VIC-labeled probe recommended by the manufacturer (PE Applied Biosystem). The real-time RT-PCR reactions were run on ABI PRISM 7900HT Sequence Detection System using the following program: 48° C. for 30 minutes, 95° C. for 10 minutes, 40 cycles of 95° C. for 15 sec, 60° C. for 1 minutes. The ΔCT values (CT5B-CTGAPDH) were plotted against the concentration of test compound and fitted to the sigmoid dose-response model using XLfit4 (MDL). […] Alternatively, to quantitate the absolute amount of replicon RNA, a standard curve was established by including serially diluted T7 transcripts of replicon RNA in the Taqman assay. All Taqman reagents were from PE Applied Biosystems. Such an assay procedure was described in detail in e.g. Malcolm et al., Antimicrobial Agents and Chemotherapy 50: 1013-1020 (2006).
(§2) HCV replicon assay data was calculated for selected compounds of the present invention using this method and is provided in the table below.
(In general: A replicon is a self-replicating genome or part of one, used to study replication in cells.)

In a further assay the test system is HCV replicon 3a WT. Put plainly: Cell-based HCV replicon assay, 3a WT. The note with it: Hepatitis C virus, 72 h; replicon cells, harvested day 3, replicon RNA by real time PCR (Taqman). Here is the method:
as §1, §2

Another assay deals with HCV replicon 4a WT. The assay is described as follows: Cell-based HCV replicon assay, 4a WT. The note with it: Hepatitis C virus, 72 h; replicon cells, harvested day 3, replicon RNA by real time PCR (Taqman). On the procedure: as §1, §2
The next assay deals with HCV replicon 2a WT. The assay is described as follows: Cell-based HCV replicon assay, 2a WT. Conditions: Hepatitis C virus, 72 h; replicon cells, harvested day 3, replicon RNA by real time PCR (Taqman). On the procedure: as §1, §2
The subject of a further assay is HCV replicon 1a Y93H. Put plainly: Cell-based HCV replicon assay, 1a Y93H. Conditions: Hepatitis C virus, 72 h, read-out: Replicon EC50 1a Y93H. Here is the method:
as §1, §2

Another assay has as its system HCV replicon 1b Y93H. The assay is described as follows: Cell-based HCV replicon assay, 1b Y93H. The note with it: Hepatitis C virus, 72 h, read-out: Replicon EC50 1b Y93H. On the procedure:
as §1, §2

The test system of another assay is HCV replicon 1b WT. The assay is described as follows: Cell-based HCV replicon assay, 1b WT. The note with it: Hepatitis C virus, 72 h; replicon cells, harvested day 3, replicon RNA by real time PCR (Taqman). On the procedure: as §1, §2
A further assay relates to HCV replicon 2b WT. Put plainly: Cell-based HCV replicon assay, 2b WT. Conditions: Hepatitis C virus, 72 h; replicon cells, harvested day 3, replicon RNA by real time PCR (Taqman). On the procedure:
as §1, §2

Structures are written as SMILES.

Turning to `COC(=O)N[C@H](C(=O)N1CCC[C@H]1c1ncc(-c2ccc3c(c2)Oc2ccc(-c4cnc([C@@H]5CCCN5C(=O)[C@@H](NC(=O)OC)C(C)C)[nH]4)c4ccn-3c24)[nH]1)C(C)C` [Compound 1, Methyl [(2S)-1-{(2S)-2-[5-(3-{2-[(2S)-1-{(2S)-2-[(methoxycarbonyl)amino]-3-methyl-butanoyl}pyrrolidin-2-yl]-1H-imidazol-5-yl}pyrrolo[3,2,1-kl]phenoxazin-8-yl)-1H-imidazol-2-yl]pyrrolidin-1-yl}-3-methyl-1-oxobutan-2-yl]carbamate], the EC50 in the assay with HCV replicon 1a WT came to 0.0107 nM; in the assay on HCV replicon 3a WT, 0.323 nM; in the assay with HCV replicon 4a WT it was 0.044 nM; with HCV replicon 2a WT, 0.004 nM; with HCV replicon 1a Y93H, 41.7 nM; in the assay with HCV replicon 1b Y93H, 0.56 nM. The same molecule returned an EC50 in the assay with HCV replicon 1b WT of 0.009 nM.

For the molecule `COC(=O)N[C@H](C(=O)N1CCC[C@H]1c1ncc(-c2cc3c4c(c2)Oc2ccc(-c5cnc([C@@H]6CCCN6C(=O)[C@@H](NC(=O)OC)C(C)C)[nH]5)cc2N4CC3)[nH]1)C(C)C` [Compound 6, Methyl [(2S)-1-{(2S)-2-[5-(4-{2-[(2S)-1-{(2S)-2-[(methoxycarbonyl)amino]-3-methylbutanoyl}pyrrolidin-2-yl]-1H-imidazol-5-yl}-1,2-dihydropyrrolo[3,2,1-kl]phenoxazin-9-yl)-1H-imidazol-2-yl]pyrrolidin-1-yl}-3-methyl-1-oxobutan-2-yl]carbamate], the EC50 with HCV replicon 1a WT was found to be 0.037 nM; in the assay on HCV replicon 3a WT, 0.22 nM; in the assay with HCV replicon 4a WT it was 0.22 nM; in the assay on HCV replicon 2a WT, 0.011 nM; in the assay with HCV replicon 1a Y93H, 43.5 nM; with HCV replicon 2b WT, 18.9 nM. Moreover, the results for the EC50 with HCV replicon 1b Y93H and in the assay on HCV replicon 1b WT were 0.303 nM and 0.005 nM, respectively.

In the case of `COC(=O)N[C@H](C(=O)N1CCC[C@H]1c1ncc(-c2ccc3c(c2)Oc2ccc(-c4cnc([C@@H]5CCCN5C(=O)[C@@H](NC(=O)OC)C(C)C)[nH]4)c4cnn-3c24)[nH]1)C(C)C` [Compound 10, Methyl [(2S)-1-{(2S)-2-[5-(3-{2-[(2S)-1-{(2S)-2-[(methoxycarbonyl)amino]-3-methylbutanoyl}pyrrolidin-2-yl]-1H-imidazol-5-yl}pyrazolo[4,5,1-kl]phenoxazin-8-yl)-1 H-imidazol-2-yl]pyrrolidin-1-yl}-3-methyl-1-oxobutan-2-yl]carbamate], the EC50 stood at 0.027 nM with HCV replicon 1a WT; 0.69 nM in the assay on HCV replicon 3a WT; 0.37 nM in the assay with HCV replicon 4a WT; 0.003 nM with HCV replicon 2a WT; 35.1 nM in the assay with HCV replicon 1a Y93H; 49 nM in the assay with HCV replicon 2b WT. The molecule further returned an EC50 in the assay on HCV replicon 1b WT of 0.005 nM.

As for `COC(=O)N[C@H](C(=O)N1CCC[C@H]1c1ncc(-c2cc3c4c(c2)Oc2ccc(-c5cnc([C@@H]6CCCN6C(=O)[C@@H](NC(=O)OC)C(C)C)[nH]5)cc2N4CCC3)[nH]1)C(C)C` [Compound 12, Methyl [(2S)-1-{(2S)-2-[5-(5-{2-[(2S)-1-{(2S)-2-[(methoxycarbonyl)amino]-3-methylbutanoyl}pyrrolidin-2-yl]-1H-imidazol-5-yl}-2,3-dihydro-1H-pyrido[3,2,1-kl]phenoxazin-10-yl)-1H-imidazol-2-yl]pyrrolidin-1-yl}-3-methyl-1-oxobutan-2-yl]carbamate], the EC50 in the assay with HCV replicon 1a WT worked out at 0.056 nM; in the assay with HCV replicon 3a WT it was 0.375 nM; in the assay with HCV replicon 4a WT, 0.13 nM; with HCV replicon 2a WT, 0.002 nM; with HCV replicon 1a Y93H, 115 nM; in the assay on HCV replicon 1b WT, 0.003 nM.

Consider `COC(=O)N[C@H](C(=O)N1CCC[C@H]1c1ncc(-c2cc3c4c(c2)Oc2ccc(-c5cnc([C@@H]6CCCN6C(=O)[C@@H](NC(=O)OC)C(C)C)[nH]5)cc2N4CCO3)[nH]1)C(C)C` [Compound 13, Methyl [(2S)-1-{(2S)-2-[5-(5-{2-[(2S)-1-{(2S)-2-[(methoxycarbonyl)amino]-3-methylbutanoyl}pyrrolidin-2-yl]-1H-imidazol-5-yl}-1,2-dihydro[1,4]oxazino[2,3,4-kl]phenoxazin-10-yl)-1H-imidazol-2-yl]pyrrolidin-1-yl}-3-methyl-1-oxobutan-2-yl]carbamate], for which the EC50 in the assay on HCV replicon 1a WT worked out at 0.002 nM; in the assay with HCV replicon 3a WT, 1.63 nM; in the assay on HCV replicon 4a WT, 0.48 nM; with HCV replicon 2a WT, 0.01 nM; in the assay with HCV replicon 1a Y93H, 143 nM; in the assay on HCV replicon 2b WT, 19.3 nM. The EC50 in the assay with HCV replicon 1b Y93H was 19 nM; with HCV replicon 1b WT, 0.005 nM.

In the case of `COC(=O)N[C@H](C(=O)N1CCC[C@H]1c1ncc(-c2ccc3c(c2)Oc2ccc(-c4cnc([C@@H]5CCCN5C(=O)[C@@H](NC(=O)OC)C(C)C)[nH]4)c4occ-3c24)[nH]1)C(C)C` [Compound 14, Methyl [(2S)-1-{(2S)-2-[5-(3-{2-[(2S)-1-{(2S)-2-[(methoxycarbonyl)amino]-3-methylbutanoyl}pyrrolidin-2-yl]-1H-imidazol-5-yl}furo[2,3,4-kl]xanthen-8-yl)-1H-imidazol-2-yl]pyrrolidin-1-yl}-3-methyl-1-oxobutan-2-yl]carbamate], the EC50 turned out to be 0.011 nM in the assay with HCV replicon 1a WT; 0.161 nM with HCV replicon 3a WT; 0.056 nM with HCV replicon 4a WT; 0.002 nM in the assay on HCV replicon 2a WT; 31.5 nM in the assay with HCV replicon 1a Y93H; 34.5 nM with HCV replicon 2b WT. Further, the EC50 in the assay on HCV replicon 1b Y93H was 0.278 nM; in the assay on HCV replicon 1b WT, 0.002 nM.

Regarding `COC(=O)N[C@H](C(=O)N1CCC[C@H]1c1ncc(-c2ccc3c(c2)-n2ccc4cc(-c5cnc([C@@H]6CCCN6C(=O)[C@@H](NC(=O)OC)C(C)C)[nH]5)cc(c42)O3)[nH]1)C(C)C` [Compound 16], the EC50 with HCV replicon 1a WT amounted to 0.1 nM; in the assay with HCV replicon 3a WT it was 9.61 nM; in the assay with HCV replicon 4a WT, 1.31 nM; with HCV replicon 2a WT, 0.104 nM; with HCV replicon 1a Y93H, 50.9 nM; in the assay with HCV replicon 2b WT, 9.07 nM. Also, the EC50 in the assay on HCV replicon 1b Y93H amounted to 9.1 nM; with HCV replicon 1b WT it was 0.009 nM.

Take `COC(=O)N[C@H](C(=O)N1CCC[C@H]1c1ncc(-c2ccc3c(c2)Oc2ccc(-c4cnc([C@@H]5CCCN5C(=O)[C@@H](NC(=O)OC)C(C)C)[nH]4)c4c2N3CC4)[nH]1)C(C)C` [Compound 17]: the EC50 with HCV replicon 1a WT came to 0.006 nM; in the assay with HCV replicon 3a WT it was 0.067 nM; in the assay on HCV replicon 4a WT, 0.026 nM; in the assay with HCV replicon 2a WT it was 0.007 nM; in the assay on HCV replicon 1a Y93H, 19.5 nM; in the assay with HCV replicon 2b WT, 19.6 nM. The EC50 in the assay on HCV replicon 1b Y93H turned out to be 19.6 nM; with HCV replicon 1b WT, 0.001 nM.

In the case of `COC(=O)N[C@H](C(=O)N1CC(F)(F)C[C@H]1c1ncc(-c2ccc3c(c2)Oc2ccc(-c4cnc([C@@H]5CC(F)(F)CN5C(=O)[C@@H](NC(=O)OC)C(C)C)[nH]4)c4c2N3CC4)[nH]1)C(C)C` [Compound 18], the EC50 with HCV replicon 1a WT was found to be 0.009 nM; in the assay with HCV replicon 3a WT, 0.936 nM; with HCV replicon 4a WT, 0.056 nM; in the assay on HCV replicon 1a Y93H it was 32 nM; in the assay with HCV replicon 2b WT it was 40 nM; in the assay on HCV replicon 1b WT it was 0.002 nM.

As to `COC(=O)N[C@H](C(=O)N1CC(F)(F)C[C@H]1c1ncc(-c2ccc3c(c2)Oc2ccc(-c4cnc([C@@H]5CC(F)(F)CN5C(=O)[C@@H](NC(=O)OC)C(C)C)[nH]4)c4c2N3CCC4)[nH]1)C(C)C` [Compound 19], the EC50 in the assay on HCV replicon 1a WT is 0.1 nM; in the assay with HCV replicon 3a WT it was 10 nM; in the assay on HCV replicon 4a WT, 0.17 nM; in the assay on HCV replicon 2a WT, 0.53 nM; in the assay on HCV replicon 2b WT it was 122 nM; in the assay on HCV replicon 1b WT it was 0.003 nM.
